The values below come from patent US9234000B2, “Benzylamine derivatives as inhibitors of plasma kallikrein” (KalVista Pharmaceuticals Limited, priority 2011, dated 2016).

One data set in a line: physchem. The conditions noted are these: pH 7, aqueous buffer, kinetic from dmso stock. The method, then: Determination of the Kinetic Solubility in Phosphate Buffer
After shaking for approximately 30 seconds the reduction in light transmission of these samples, at 650 nm, was measured (Molecular Devices Spectromax UV/visible spectrophotometer). A second measurement was taken at approximately 30 seconds later.

The next data set addresses Human KLK1 (Homo sapiens (Human), UniProt P06870). The experiment in a line: Determination of the IC50 for KLK1. The class given is biochemical. The note with it: Human KLK1, 37° C., substrate H-DVal-Leu-Arg-AFC; Table 12. A digest of the protocol:
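Human KLK1 incubated at 37° C with fluorogenic substrate H-DVal-Leu-Arg-AFC and a range of test compound concentrations. Residual activity taken as initial reaction rate from absorbance change at 410 nm; IC50 derived from these rates.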

A further data set has as its target Human plasma kallikrein (Homo sapiens (Human), UniProt P03952). As to the kind of experiment: Determination of the IC50 for plasma kallikrein. The conditions noted are these: fluorogenic substrate H-DPro-Phe-Arg-AFC, 37° C., read-out: IC50 (human PKal). It is filed as biochemical. In short, it runs like this: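 Human plasma kallikrein incubated at 37° C with fluorogenic substrate H-DPro-Phe-Arg-AFC and varying compound concentrations. Initial reaction rate followed by absorbance change at 410 nm to give residual activity and IC50.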

The nature of data set [1]: Determination of thermodynamic solubility in phosphate buffer. The class given is physicochemical. The note with it: pH 7.4, aqueous buffer, thermodynamic from solid, ammonium phosphate buffer pH7.4, 290 mOsm, 37° C., nominal 1 mg/mL, read-out: Solubility in PO4 buffer. A digest of the protocol:
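Compound at nominal 1 mg/mL in ammonium phosphate buffer (pH7.4, 290 mOsm), shaken 1 h at 37° C., then centrifuged 15,000 g for 10 minutes at 37° C. Supernatant concentration measured by LC-MS/MS against a calibration line from a DMSO stock.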

The next data set relates to CA-I stimulated RVP. As to the kind of experiment: Carbonic anhydrase I induced retinal vascular permeability model. The conditions noted are these: rat. It is filed as in vivo, Sprague Dawley rats. Here is the method:
Carbonic Anhydrase I Induced Retinal Vascular Permeability Model
After 30 mins, a second intravitreal injection (5 μL) of PBS or CA-I (200 ng/eye) was given. After 15 minutes, 10% sodium fluorescein was infused and retinal vascular permeability (RVP) was measured by vitreous fluorophotometry 75 minutes following the initial IVT injections.

The target in another data set is Factor XIIa (Homo sapiens (Human), UniProt P00748). The experiment in a line: Determination of enzyme selectivity: Factor XIIa. It is filed as biochemical. The conditions noted are these: fluorogenic substrate at Km concentration. The method, then: (§1) Determination of Enzyme Selectivity
Human serine protease enzymes plasmin, thrombin, trypsin, Factor Xa and Factor XIIa were assayed for enzymatic activity using an appropriate fluorogenic substrate. Protease activity was measured by monitoring the accumulation of liberated fluorescence from the substrate over 5 minutes. The linear rate of fluorescence increase per minute was expressed as percentage (%) activity. The Km for the cleavage of each substrate was determined by standard transformation of the Michaelis-Menten equation.

The next data set addresses plasmin (Homo sapiens (Human), UniProt P00747). As to the kind of experiment: Determination of enzyme selectivity: plasmin. The class given is biochemical. The conditions noted are these: substrate at Km.
Excerpt: as §1

Data set [2] in a line: Ocular and systemic pharmacokinetics following a single IVT dose. The class given is in vivo, pigmented (Dutch-belted) rabbits. The conditions noted are these: rabbit. Here is the method: A pharmacokinetic study of Example 3 was performed to assess the ocular and systemic pharmacokinetics following a single IVT dose in pigmented (Dutch-belted) rabbits. […] Serial blood samples were collected in surviving rabbits.
Ocular tissue concentration data are presented in FIG. 2, in which the solid line for each ocular tissue concentration is the average of the left and right eye of each rabbit.

A further data set concerns the target Factor Xa (Homo sapiens (Human), UniProt P00742). The experiment in a line: Determination of enzyme selectivity: Factor Xa. The class given is biochemical. The note with it: substrate at Km.
Excerpt: as §1

The target in a further data set is thrombin (Homo sapiens (Human), UniProt P00734). As to the kind of experiment: Determination of enzyme selectivity: thrombin. It is filed as biochemical. The note with it: substrate at Km.
Excerpt: as §1

Broadly, the solubility is the concentration that dissolves in the medium under given conditions. Broadly, the IC50 is the concentration that inhibits the measured activity by half.

Molecules are shown by their SMILES. ≈ marks a conversion by molar mass, not a printed value.

Chain of Human plasma kallikrein (P03952 391-638): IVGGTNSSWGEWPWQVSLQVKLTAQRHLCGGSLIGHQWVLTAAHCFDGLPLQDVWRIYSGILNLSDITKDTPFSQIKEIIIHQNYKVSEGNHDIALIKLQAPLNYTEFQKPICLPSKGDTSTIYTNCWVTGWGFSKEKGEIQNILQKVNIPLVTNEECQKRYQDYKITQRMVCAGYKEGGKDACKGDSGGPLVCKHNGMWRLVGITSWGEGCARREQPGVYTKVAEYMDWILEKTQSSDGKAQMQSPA
Chain of Human plasma kallikrein (P03952 20-390 partner): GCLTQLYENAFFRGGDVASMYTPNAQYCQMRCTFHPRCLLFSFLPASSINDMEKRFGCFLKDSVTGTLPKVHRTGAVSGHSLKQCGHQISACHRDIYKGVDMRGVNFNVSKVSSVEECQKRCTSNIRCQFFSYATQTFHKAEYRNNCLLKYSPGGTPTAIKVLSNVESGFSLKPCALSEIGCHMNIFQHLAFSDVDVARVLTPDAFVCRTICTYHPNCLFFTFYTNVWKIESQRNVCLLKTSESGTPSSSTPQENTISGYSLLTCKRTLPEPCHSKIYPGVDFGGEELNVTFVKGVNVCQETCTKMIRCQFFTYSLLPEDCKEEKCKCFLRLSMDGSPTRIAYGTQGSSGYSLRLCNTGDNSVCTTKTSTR
Chain of Factor XIIa (P00748 373-615): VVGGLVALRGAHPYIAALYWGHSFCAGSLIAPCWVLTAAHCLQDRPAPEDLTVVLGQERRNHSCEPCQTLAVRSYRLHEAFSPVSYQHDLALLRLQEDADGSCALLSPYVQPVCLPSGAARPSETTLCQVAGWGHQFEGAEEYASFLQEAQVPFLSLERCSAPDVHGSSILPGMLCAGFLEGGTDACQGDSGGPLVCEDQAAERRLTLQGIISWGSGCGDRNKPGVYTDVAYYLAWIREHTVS
Chain of Factor Xa (P00742 235-488): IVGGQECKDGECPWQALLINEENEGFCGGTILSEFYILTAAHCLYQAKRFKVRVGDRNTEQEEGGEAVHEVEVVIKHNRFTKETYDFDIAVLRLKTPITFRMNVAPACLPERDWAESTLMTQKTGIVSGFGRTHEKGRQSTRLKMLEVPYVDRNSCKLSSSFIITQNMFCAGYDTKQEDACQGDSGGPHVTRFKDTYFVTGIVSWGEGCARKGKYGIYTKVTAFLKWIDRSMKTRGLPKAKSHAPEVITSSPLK
Chain of Factor Xa (P00742 41-179 partner): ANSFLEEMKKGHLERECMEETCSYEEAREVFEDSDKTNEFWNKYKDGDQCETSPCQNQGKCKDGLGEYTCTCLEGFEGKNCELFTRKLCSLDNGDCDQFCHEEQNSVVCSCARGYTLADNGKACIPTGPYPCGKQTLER
Chain of Human KLK1 (P06870 25-262): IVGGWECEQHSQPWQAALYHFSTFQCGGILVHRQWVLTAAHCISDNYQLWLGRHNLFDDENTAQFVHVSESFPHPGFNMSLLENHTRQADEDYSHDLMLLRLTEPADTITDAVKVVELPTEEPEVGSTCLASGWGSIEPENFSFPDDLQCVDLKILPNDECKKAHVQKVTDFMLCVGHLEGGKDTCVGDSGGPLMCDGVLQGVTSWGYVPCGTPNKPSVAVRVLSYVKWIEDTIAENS
Chain of plasmin (P00747 whole entry, looked up, change not shown): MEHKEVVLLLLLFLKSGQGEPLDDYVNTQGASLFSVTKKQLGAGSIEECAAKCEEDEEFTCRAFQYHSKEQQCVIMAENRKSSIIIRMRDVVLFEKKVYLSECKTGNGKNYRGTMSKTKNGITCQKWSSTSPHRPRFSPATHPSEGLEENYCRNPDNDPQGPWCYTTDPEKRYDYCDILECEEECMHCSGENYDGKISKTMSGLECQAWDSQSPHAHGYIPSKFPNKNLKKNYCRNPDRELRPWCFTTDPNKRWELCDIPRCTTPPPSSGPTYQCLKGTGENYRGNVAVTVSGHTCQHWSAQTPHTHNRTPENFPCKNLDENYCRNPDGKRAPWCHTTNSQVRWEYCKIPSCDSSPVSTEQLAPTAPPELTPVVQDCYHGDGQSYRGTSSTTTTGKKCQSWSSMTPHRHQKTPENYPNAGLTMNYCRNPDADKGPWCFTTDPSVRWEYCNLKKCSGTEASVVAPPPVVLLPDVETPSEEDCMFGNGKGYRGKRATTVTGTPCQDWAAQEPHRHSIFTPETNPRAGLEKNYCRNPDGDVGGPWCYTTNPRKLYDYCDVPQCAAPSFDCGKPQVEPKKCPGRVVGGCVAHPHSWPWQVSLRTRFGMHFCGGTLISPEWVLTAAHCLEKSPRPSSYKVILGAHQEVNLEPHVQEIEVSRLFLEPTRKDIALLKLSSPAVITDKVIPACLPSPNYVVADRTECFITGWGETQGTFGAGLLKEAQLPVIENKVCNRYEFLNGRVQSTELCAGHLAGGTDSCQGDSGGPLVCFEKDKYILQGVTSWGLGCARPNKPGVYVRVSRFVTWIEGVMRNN
Chain of plasmin (P00747 whole entry partner, looked up): as the sequence (P00747 whole entry, looked up, change not shown) above

`CCOc1ccc(C[C@@H](NC(=O)c2ccccc2)C(=O)N[C@@H](Cc2ccccc2)C(=O)NCc2ccc(CN)cc2)cc1` [Example 3, N—[(R)-1-[(S)-1-(4-Aminomethyl-benzylcarbamoyl)-2-phenyl-ethylcarbamoyl]-2-(4-ethoxy-phenyl)-ethyl]-benzamide] gave a solubility in “physchem” of 12 µM (≈ 6.94 µg/mL). For the same compound, the IC50 is above 10 µM against Human KLK1; 0.022 µM at Human plasma kallikrein; above 10 µM on Factor XIIa; 3.5 µM against plasmin; above 10 µM against Factor Xa; above 40 µM against thrombin. Also, in [1], the solubility at 1 h came to 10 µg/mL (≈ 17.3 µM). The “reduction of RVP stimulated by CA-I injection” value in the data set with CA-I stimulated RVP (intravitreal injection 1 μM (5 μL), CA-I 200 ng/eye, RVP measured at 75 minutes) was determined as 53±21%. In the data set with CA-I stimulated RVP (intravitreal injection of 1 μM alone (no CA-I), PBS alone 3.64±0.48, no effect), the “basal RVP” value came out at 3.29±0.21. For the same compound, the “decline in ocular tissue concentrations” value in [2] (IVT 210 ng per eye, vitreous, retina/choroid, aqueous humour, over 7 days) is recorded as “minimal”. Further, in [2] (single bilateral IVT 210 ng per eye, all time points), the “Plasma concentrations following IVT administration” value is “below 1 ng/mL”.
